In patent US8383581B2, “Short-chain peptides as parathyroid hormone (PTH) receptor agonist” (Cadila Healthcare Limited, priority 2009, dated 2013):
Where a SMILES comes first, the peptide text is derived from it. [ ]: non-standard residue; d: D form. ξ: configuration not given here. ξαMeBip(2'-Et,4'-OMe) = CCc1cc(OC)ccc1-c1ccc(CC(C)(N)C(=O)O)cc1; ξBip(2'-Et-4'-OMe) = CCc1cc(OC)ccc1-c1ccc(CC(N)C(=O)O)cc1; ξαMePhe(2,6-F2) = CC(N)(Cc1c(F)cccc1F)C(=O)O; ξαMe(hhPhe) = CC(N)(CCCc1ccccc1)C(=O)O; hArg = N=C(N)NCCCC[C@H](N)C(=O)O; Cit = NC(=O)NCCC[C@H](N)C(=O)O; ξhhPhe = NC(CCCc1ccccc1)C(=O)O; ξαMeNle = CCCCC(C)(N)C(=O)O; Nle = CCCC[C@H](N)C(=O)O; Orn = NCCC[C@H](N)C(=O)O; Ac5c = NC1(C(=O)O)CCCC1; Aib = CC(C)(N)C(=O)O

Test system: ovariectomised (OVX) rats
Experiment: In vivo anti-osteoporosis activity testing in OVX rat model (serum calcium, phosphate, bone parameters)
Set-up: species or system Female Wistar Rats
Conditions: po
Excerpt: c) In Vivo Anti-Osteoporosis Activity Testing in OVX Rat Model: The ovariectomised (OVX) rats were used to study anti-osteoporosis activity of test compounds (short-chain peptides) in vivo. The OVX rats develop osteopenia due to ovarian hormone deficiency. Osteopenia can be detected as early as 14 days post OVX, increase for the next 100 days and then stabilised (Wronski T. J., et al., Calcif. Tissue Int., 43(3), 1988, 179-183). Detailed Study Protocol to Evaluate the Effects of Anabolic Therapy on Bone Markers and Histomorphometry in OVX Animals: 10 to 11 weeks old Female Wistar Rats (150-200 g) were used. The animals were kept in individually ventilated cages in a room with controlled temperature (23°±3° C.), lighting (12:12 h light-dark cycle) and relative humidity (55±10%). Animals had free access to standard rat chow and water. Protocol for use of animals for conducting this study has been reviewed and approved by Institutional Animal Ethics Committee (IAEC). The animals were marked with picric acid for identification and acclimatized to experimental room conditions for 2 days prior to initiation of the study. For the induction of osteoporosis, rats were bilaterally ovariectomised under anesthesia. For Ovariectomy, Incision was made on dorsa-lateral side near lumbar region of animal. After that, ovary was excised and the veins were tied with ligature before removing ovary to prevent blood loss. Then incision was sutured back with ligature. After Bilateral ovariectomy, animals were allowed to rest for 4 weeks. They were then divided into different groups (n=9) based on their body weight. The groups consisted of a no treatment control, PTH as standard and one or two groups of test compounds (short-chain peptides). The treatment was given for the duration of 6 weeks. At the last day of treatment animals were kept overnight in metabolic cages under fasting for the collection of Urine. Next day, blood was collected after 24 hours of last dosing and animals were sacrificed. Changes in biochemical parameters and bone turnover parameters (Increase in serum Calcium and decrease in Phosphate levels, Acid Phosphatase and TRAP) were evaluated in the urine and serum. After sacrificing, intact femur and tibial bones are removed and cleaned from adherent tissues, muscles and tendons; weighed and collected in formal saline (10% formaldehyde solution). Lumbar vertebra (L5) was excised, carefully cleaned and collected in formal saline. Femur, tibia and Lumbar vertebra-5 (L5) were later processed for histomorphometric evaluation (Zhang L., et al., Tohoku J Exp Med., 1998, 186(2), 131-41; Tanizawa T., et al., Toxicol Lett., 1998, 102, 399-403).

Compound: CCCC[C@H](NC(=O)C(C)(Cc1c(F)cccc1F)NC(=O)[C@H](CCC(N)=O)NC(=O)[C@@H](NC(=O)[C@H](CCC(=O)O)NC(=O)C(C)(C)NC(=O)[C@@H](NC(=O)C(C)(C)N)C(C)C)[C@@H](C)CC)C(=O)N[C@@H](Cc1c[nH]cn1)C(=O)N[C@@H](CCC(N)=O)C(=O)N[C@@H](CCCCNC(=N)N)C(=O)N[C@@H](C)C(=O)NC(C)(C)C(=O)NC(Cc1ccc(-c2ccc(OC)cc2CC)cc1)C(=O)NC(CCCc1ccccc1)C(N)=O (stereo partly drawn) [Seq. ID. 814] (H-[Aib]V[Aib]EIQ[ξαMePhe(2,6-F2)][Nle]HQ[hArg]A[Aib][ξBip(2'-Et-4'-OMe)][ξhhPhe]-NH2)
- % decrease in serum PO4 Levels (mg/dl) vs control (0.02 mg/kg): 95%
- % increase in serum Ca^2+ Levels (mg/dl) vs control (0.02 mg/kg): 99%

Compound: CCCC[C@H](NC(=O)C(C)(Cc1c(F)cccc1F)NC(=O)[C@H](CCC(N)=O)NC(=O)[C@@H](NC(=O)[C@H](CCC(=O)O)NC(=O)C(C)(C)NC(=O)[C@@H](NC(=O)C1(N)CCCC1)C(C)C)[C@@H](C)CC)C(=O)N[C@@H](Cc1c[nH]cn1)C(=O)N[C@@H](CCC(N)=O)C(=O)N[C@@H](CCCN)C(=O)N[C@@H](C)C(=O)NC(C)(Cc1c(F)cccc1F)C(=O)NC(Cc1ccc(-c2ccc(OC)cc2CC)cc1)C(=O)NC(CCCc1ccccc1)C(N)=O (stereo partly drawn) [Seq. ID. 833] (H-[Ac5c]V[Aib]EIQ[ξαMePhe(2,6-F2)][Nle]HQ[Orn]A[ξαMePhe(2,6-F2)][ξBip(2'-Et-4'-OMe)][ξhhPhe]-NH2)
- % decrease in serum PO4 Levels (mg/dl) vs control (0.05 mg/kg): 78%
- % increase in serum Ca^2+ Levels (mg/dl) vs control (0.05 mg/kg): 86%

Compound: CCCC[C@H](NC(=O)C(C)(Cc1c(F)cccc1F)NC(=O)[C@H](CCC(N)=O)NC(=O)[C@@H](NC(=O)[C@H](CCC(=O)O)NC(=O)C(C)(C)NC(=O)[C@@H](NC(=O)C1(N)CCCC1)C(C)C)[C@@H](C)CC)C(=O)N[C@@H](Cc1c[nH]cn1)C(=O)N[C@@H](CCC(N)=O)C(=O)N[C@@H](CCCNC(N)=O)C(=O)N[C@@H](C)C(=O)NC(C)(C)C(=O)NC(Cc1ccc(-c2ccc(OC)cc2CC)cc1)C(=O)NC(CCCc1ccccc1)C(N)=O (stereo partly drawn) [Seq. ID. 847] (H-[Ac5c]V[Aib]EIQ[ξαMePhe(2,6-F2)][Nle]HQ[Cit]A[Aib][ξBip(2'-Et-4'-OMe)][ξhhPhe]-NH2)
- % decrease in serum PO4 Levels (mg/dl) vs control (0.5 mg/kg): 79%
- % increase in serum Ca^2+ Levels (mg/dl) vs control (0.5 mg/kg): 77%

Compound: CCCC[C@H](NC(=O)[C@H](CC(C)C)NC(=O)[C@H](CCC(N)=O)NC(=O)[C@@H](NC(=O)[C@H](CCC(=O)O)NC(=O)C(C)(C)NC(=O)[C@@H](NC(=O)C(C)(C)NC(=O)[C@@H](N)C(C)C)C(C)C)[C@@H](C)CC)C(=O)N[C@@H](Cc1c[nH]cn1)C(=O)N[C@@H](CCC(N)=O)C(=O)N[C@@H](CCCCNC(=N)N)C(=O)N[C@@H](C)C(=O)N[C@@H](CCCCN)C(=O)NC(Cc1ccc(-c2ccc(OC)cc2CC)cc1)C(=O)NC(C)(CCCc1ccccc1)C(N)=O (stereo partly drawn) [Seq. ID. 893] (H-V[Aib]V[Aib]EIQL[Nle]HQ[hArg]AK[ξBip(2'-Et-4'-OMe)][ξαMe(hhPhe)]-NH2)
- % decrease in serum PO4 Levels (mg/dl) vs control (0.3 mg/kg): 89%
- % increase in serum Ca^2+ Levels (mg/dl) vs control (0.3 mg/kg): 108%

Compound: CCc1cc(OC)ccc1-c1ccc(CC(C)(NC(=O)[C@H](CCCCNC(=N)N)NC(=O)[C@H](C)NC(=O)[C@H](CCCCNC(=N)N)NC(=O)[C@H](CCC(N)=O)NC(=O)[C@H](Cc2c[nH]cn2)NC(=O)[C@H](CCSC)NC(=O)[C@H](CC(C)C)NC(=O)[C@H](CCC(N)=O)NC(=O)[C@@H](NC(=O)[C@H](CCC(=O)O)NC(=O)C(C)(C)NC(=O)[C@@H](NC(=O)C(C)(C)NC(=O)[C@@H](N)C(C)C)C(C)C)[C@@H](C)CC)C(=O)NC(CCCc2ccccc2)C(N)=O)cc1 (stereo partly drawn) [Seq. ID. 902] (H-V[Aib]V[Aib]EIQLMHQ[hArg]A[hArg][ξαMeBip(2'-Et,4'-OMe)][ξhhPhe]-NH2)
- % decrease in serum PO4 Levels (mg/dl) vs control (0.8 mg/kg): 98%
- % increase in serum Ca^2+ Levels (mg/dl) vs control (0.8 mg/kg): 110%

Compound: CCCCC(C)(NC(=O)[C@H](CC(C)C)NC(=O)[C@H](CCC(N)=O)NC(=O)[C@@H](NC(=O)[C@H](CCC(=O)O)NC(=O)C(C)(C)NC(=O)[C@@H](NC(=O)C(C)(C)N)C(C)C)[C@@H](C)CC)C(=O)N[C@@H](Cc1c[nH]cn1)C(=O)N[C@@H](CCC(N)=O)C(=O)N[C@@H](CCCCNC(=N)N)C(=O)N[C@@H](C)C(=O)N[C@@H](CCCCNC(=N)N)C(=O)NC(C)(Cc1ccc(-c2ccc(OC)cc2CC)cc1)C(=O)NC(CCCc1ccccc1)C(N)=O (stereo partly drawn) [Seq. ID. 911] (H-[Aib]V[Aib]EIQL[ξαMeNle]HQ[hArg]A[hArg][ξαMeBip(2'-Et,4'-OMe)][ξhhPhe]-NH2)
- % decrease in serum PO4 Levels (mg/dl) vs control (10 mg/kg): 97%
- % increase in serum Ca^2+ Levels (mg/dl) vs control (10 mg/kg): 121%
